Test results from patent publication US5462927A, “Peptides aiding nerve regeneration” (The Administrators of the Tulane Educational Fund, priority 1992, dated 1995).
Ends that are not written are not given here.

Tested on: crushed sciatic nerve
Experiment: Sensorimotor function test (sciatic nerve regeneration assay, foot-flick response to thermal pain)
Type: in vivo, rat
Conditions: s.c. every 24 hr for approximately 20-25 days; head prints only 'μG/24 HRS'; vs 0.9% NaCl control
Description: Female, Sprague-Dawley rats (Charles River Breeding Labs) were used at an age of 7-8 weeks (120-140 g). Under ether anesthesia, the right sciatic nerve was carefully exposed and crushed with constant pressure, hemostatic forceps for 30 sec prior to closure and suturing of the incision. After surgery, the animals were randomly assigned to treatment groups of 10. The test peptides were administered s.c. in 0.9% NaCl in a vol of 0.1 ml. NaCl (0.9%) served as the control. Injections were started immediately after surgery and given every 24 hr thereafter for approximately 20-25 days. The criterion of sciatic nerve regeneration was based on the recovery of the foot-flick response to thermal pain. Beginning 48 hr after surgery, the rats were tested five days a week for the ability to withdraw, from a heat source, the paw innervated by the crushed nerve. All sensorimotor testing was performed between 1:00 and 3:00 p.m. Specifically, the rat was immobilized by wrapping in a towel, and the sole of the lesioned limb was placed over the aperture of a modified d'Amour apparatus. The time required to withdraw the foot was recorded to the nearest 0.1 of sec using a digital stopwatch. If no response occurred by 5 sec, the test was terminated to avoid tissue damage. The observe measuring the foot-flick response was blind to the treatment group being tested. All animals were acclimatized to the testing procedure prior to surgery. Baseline values were obtained by determining the response time for the unlesioned limb.

CCCC[C@H](N)C(=O)N[C@@H](CCC(N)=O)C(=O)N[C@@H](Cc1c[nH]cn1)C(=O)N[C@@H](Cc1ccccc1)C(=O)N[C@@H](CCCNC(=N)N)C(=O)N[C@@H](Cc1c[nH]c2ccccc12)C(=O)NCC(N)=O [BIM-22010, NLeu--Gln--His--Phe--Arg--Trp--Gly--NH2]
% Reduction of Recovery Time: 13%

AQYFRWG-NH2 [BIM-22016, L--Ala--Gln--Tyr--Phe--Arg--Trp--Gly--NH2]
% Reduction of Recovery Time: 13%
